Measurements taken from patent EP4707280A1, “1,4-CINEOLE DERIVATIVE AND INTERMEDIATE THEREOF, HERBICIDE CONTAINING SAID DERIVATIVE AS ACTIVE INGREDIENT, METHOD FOR USING HERBICIDE, AND METHOD FOR PREPARING AGROCHEMICAL COMPOSITION” (HOKKO CHEMICAL INDUSTRY CO., LTD., priority 2023, dated 2024).

Key:
Type in all cases: in vivo
Digitaria ciliaris [1] = assay: Test Example 4: herbicidal effect test by stem and leaf treatment in upland field; settings: Digitaria ciliaris; 120 g per 10 ares; sprayed seven days after sowing, upland soil; 14 days after application; read-out: weed inhibition rate
[2] = tested on: Echinochloa crus-galli var. formosensis; assay: Test Example 2: herbicidal effect test by application during growth period of paddy rice; settings: Echinochloa crus-galli; 120 g per 10 ares; applied seven days after sowing, flooded pots; 14 days after application; read-out: weed inhibition rate
In short: (§1)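 Greenhouse pots of flooded paddy soil, seeded shallowly with 30 seeds per weed, are treated on day 7 by dropper with diluted emulsifiable concentrate equal to 120 g a.i./10 a. Duplicate pots are scored for inhibition rate 14 days post-application.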

Echinochloa crus-galli [3] = assay: Test Example 4: herbicidal effect test by stem and leaf treatment in upland field; settings: Echinochloa crus-galli; 120 g per 10 ares; sprayed seven days after sowing, upland soil; 14 days after application; read-out: weed inhibition rate
[4] = tested on: Echinochloa crus-galli var. formosensis; assay: Test Example 6: herbicidal effect test by application during growth period of paddy rice (low dose); settings: Echinochloa crus-galli; 7.5 g per 10 ares; applied seven days after sowing, flooded pots; 14 days after application; read-out: weed inhibition rate
In short: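 Paddy soil in flooded Wagner pots (about 3 cm water), weeds sown at 0–1 cm, 30 seeds each, grown in a glass greenhouse. Seven days after sowing, water-diluted emulsifiable concentrate was dropped into the water at 7.5 g active ingredient per 10 ares. Weed inhibition rate (%) was scored 14 days after application, in duplicate.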

Echinochloa crus-galli [5] = assay: Test Example 8: herbicidal effect test by stem and leaf treatment in upland field (low dose); settings: Echinochloa crus-galli; 7.5 g per 10 ares; sprayed seven days after sowing, upland soil; 14 days after application; read-out: weed inhibition rate
Digitaria ciliaris [6] = assay: Test Example 3: herbicidal effect test by soil application in upland field; settings: Digitaria ciliaris, 120 g per 10 ares, sprayed one day after sowing, 14 days after application, read-out: weed inhibition rate
In short: (§2)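 Pre-emergence test: seeds mixed into top 1 cm of alluvial loam upland soil in pots; emulsifiable concentrate diluted in water sprayed on soil one day after sowing at 100 L/10 a, 120 g a.i./10 a. Weed inhibition rate (%) scored at 14 days, in duplicate.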

Echinochloa crus-galli [7] = assay: as above; settings: Echinochloa crus-galli, 120 g per 10 ares, sprayed one day after sowing, 14 days after application, read-out: weed inhibition rate
In short: as §2

Monochoria vaginalis = assay: Test Example 2: herbicidal effect test by application during growth period of paddy rice; settings: Pontederia vaginalis; 120 g per 10 ares; applied seven days after sowing, flooded pots; 14 days after application; read-out: weed inhibition rate
In short: as §1

Scirpus juncoides = assay: as above; settings: Schoenoplectiella juncoides; 120 g per 10 ares; applied seven days after sowing, flooded pots; 14 days after application; read-out: weed inhibition rate
In short: as §1

Cc1ccccc1CO[C@@H]1C[C@]2(C(C)C)O[C@@]1(C)C[C@@H]2Br [1-16, (1S,2R,4R,5S)-5-bromo-1-methyl-2-[(2-methylphenyl)methoxy]-4-isopropyl-7-oxabicyclo[2.2.1]heptane]
≥ 80%: inhibition at 1200 g/ha (Digitaria ciliaris [1]) | inhibition at 1200 g/ha [2] | inhibition at 1200 g/ha (Echinochloa crus-galli [3]) | inhibition at 75 g/ha [4] | inhibition at 75 g/ha (Echinochloa crus-galli [5]) | inhibition at 1200 g/ha (Digitaria ciliaris [6]) | inhibition at 1200 g/ha (Echinochloa crus-galli [7])

CC(C)[C@]12C[C@@H](OCc3c(F)cccc3F)[C@](C)(CC1C)O2 (stereo partly drawn) [1-111, (1S,2R,4R)-2-((2,6-difluorobenzyl)oxy)-4-isopropyl-1,5-dimethyl-7-oxabicyclo[2.2.1]heptane]
≥ 80%: inhibition at 1200 g/ha (Digitaria ciliaris [1]) | inhibition at 1200 g/ha (Monochoria vaginalis) | inhibition at 1200 g/ha [2] | inhibition at 1200 g/ha (Scirpus juncoides) | inhibition at 1200 g/ha (Echinochloa crus-galli [3]) | inhibition at 75 g/ha [4] | inhibition at 75 g/ha (Echinochloa crus-galli [5]) | inhibition at 1200 g/ha (Digitaria ciliaris [6]) | inhibition at 1200 g/ha (Echinochloa crus-galli [7])

CCC1C[C@]2(C)O[C@@]1(C(C)C)C[C@H]2OCc1ccccc1C (stereo partly drawn) [1-123, (1R,4S,5R)-2-ethyl-1-isopropyl-4-methyl-5-((2-methylbenzyl)oxy)-7-oxabicyclo[2.2.1]heptane]
≥ 80%: inhibition at 1200 g/ha (Digitaria ciliaris [1]) | inhibition at 1200 g/ha [2] | inhibition at 1200 g/ha (Echinochloa crus-galli [3]) | inhibition at 75 g/ha [4] | inhibition at 75 g/ha (Echinochloa crus-galli [5]) | inhibition at 1200 g/ha (Digitaria ciliaris [6]) | inhibition at 1200 g/ha (Echinochloa crus-galli [7])

CCC1C[C@]2(C)O[C@@]1(C(C)C)C[C@H]2OCc1ccccc1F (stereo partly drawn) [1-126, (1R,4S,5R)-2-ethyl-5-[(2-fluorobenzyl)oxy]-1-isopropyl-4-methyl-7-oxabicyclo[2.2.1]heptane]
≥ 80%: inhibition at 1200 g/ha (Digitaria ciliaris [1]) | inhibition at 1200 g/ha [2] | inhibition at 1200 g/ha (Echinochloa crus-galli [3]) | inhibition at 75 g/ha [4] | inhibition at 75 g/ha (Echinochloa crus-galli [5]) | inhibition at 1200 g/ha (Digitaria ciliaris [6]) | inhibition at 1200 g/ha (Echinochloa crus-galli [7])

CCOC(C)O[C@H]1C[C@]2(C)O[C@@]1(C(C)C)C[C@H]2OCc1ccccc1C (stereo partly drawn) [1-208, (1R,2S,4S,5R)-2-(1-ethoxyethoxy)-1-isopropyl-4-methyl-5-((2-methylbenzyl)oxy)-7-oxabicyclo[2.2.1]heptane]
≥ 80%: inhibition at 1200 g/ha (Digitaria ciliaris [1]) | inhibition at 1200 g/ha [2] | inhibition at 1200 g/ha (Scirpus juncoides) | inhibition at 1200 g/ha (Echinochloa crus-galli [3]) | inhibition at 75 g/ha [4] | inhibition at 75 g/ha (Echinochloa crus-galli [5]) | inhibition at 1200 g/ha (Digitaria ciliaris [6]) | inhibition at 1200 g/ha (Echinochloa crus-galli [7])

CCOC(C)O[C@H]1C[C@]2(C)O[C@@]1(C(C)C)C[C@H]2OCc1c(F)cccc1F (stereo partly drawn) [1-223, (1S,2R,4R,5S)-2-((2,6-difluorobenzyl)oxy)-5-(1-ethoxyethoxy)-4-isopropyl-1-methyl-7-oxabicyclo[2.2.1]heptane]
≥ 80%: inhibition at 1200 g/ha (Digitaria ciliaris [1]) | inhibition at 1200 g/ha [2] | inhibition at 1200 g/ha (Scirpus juncoides) | inhibition at 1200 g/ha (Echinochloa crus-galli [3]) | inhibition at 75 g/ha [4] | inhibition at 75 g/ha (Echinochloa crus-galli [5]) | inhibition at 1200 g/ha (Digitaria ciliaris [6]) | inhibition at 1200 g/ha (Echinochloa crus-galli [7])

CC(C)[C@]12C[C@@H](OCc3ccccc3F)[C@](C)(C[C@@H]1OS(=O)(=O)C(F)(F)F)O2 [1-525, (1R,2S,4S,5R)-5-((2-fluorobenzyl)oxy)-1-isopropyl-4-methyl-7-oxabicyclo[2.2.1]heptan-2-yl trifluoromethanesulfonate]
≥ 80%: inhibition at 1200 g/ha (Digitaria ciliaris [1]) | inhibition at 1200 g/ha [2] | inhibition at 1200 g/ha (Echinochloa crus-galli [3]) | inhibition at 75 g/ha [4] | inhibition at 75 g/ha (Echinochloa crus-galli [5]) | inhibition at 1200 g/ha (Digitaria ciliaris [6]) | inhibition at 1200 g/ha (Echinochloa crus-galli [7])

Cc1cccc(CO[C@@H]2C[C@]3(C(C)C)O[C@@]2(C)C[C@@H]3Br)c1 [1-680, (1S,2R,4R,5S)-5-bromo-1-methyl-2-[(3-methylphenyl)methoxy]-4-isopropyl-7-oxabicyclo[2.2.1]heptane]
≥ 80%: inhibition at 1200 g/ha (Digitaria ciliaris [1]) | inhibition at 1200 g/ha (Monochoria vaginalis) | inhibition at 1200 g/ha [2] | inhibition at 1200 g/ha (Scirpus juncoides) | inhibition at 1200 g/ha (Echinochloa crus-galli [3]) | inhibition at 75 g/ha [4] | inhibition at 75 g/ha (Echinochloa crus-galli [5]) | inhibition at 1200 g/ha (Digitaria ciliaris [6]) | inhibition at 1200 g/ha (Echinochloa crus-galli [7])

Cc1ccc(CO[C@@H]2C[C@]3(C(C)C)O[C@@]2(C)C[C@@H]3Br)cc1 [1-681, (1S,2R,4R,5S)-5-bromo-1-methyl-2-[(4-methylphenyl)methoxy]-4-isopropyl-7-oxabicyclo[2.2.1]heptane]
≥ 80%: inhibition at 1200 g/ha (Digitaria ciliaris [1]) | inhibition at 1200 g/ha (Monochoria vaginalis) | inhibition at 1200 g/ha [2] | inhibition at 1200 g/ha (Scirpus juncoides) | inhibition at 1200 g/ha (Echinochloa crus-galli [3]) | inhibition at 75 g/ha [4] | inhibition at 75 g/ha (Echinochloa crus-galli [5]) | inhibition at 1200 g/ha (Digitaria ciliaris [6]) | inhibition at 1200 g/ha (Echinochloa crus-galli [7])

CC(C)[C@]12C[C@@H](OCc3ccc(Cl)cc3)[C@](C)(C[C@@H]1Br)O2 [1-693, (1S,2R,4R,5S)-5-bromo-2-[(4-chlorophenyl)methoxy]-1-methyl-4-isopropyl-7-oxabicyclo[2.2.1]heptane]
≥ 80%: inhibition at 1200 g/ha (Digitaria ciliaris [1]) | inhibition at 1200 g/ha (Monochoria vaginalis) | inhibition at 1200 g/ha [2] | inhibition at 1200 g/ha (Scirpus juncoides) | inhibition at 1200 g/ha (Echinochloa crus-galli [3]) | inhibition at 75 g/ha [4] | inhibition at 75 g/ha (Echinochloa crus-galli [5]) | inhibition at 1200 g/ha (Digitaria ciliaris [6]) | inhibition at 1200 g/ha (Echinochloa crus-galli [7])

CC(C)[C@]12C[C@@H](OCc3ccccc3C#N)[C@](C)(C[C@@H]1Br)O2 [1-703, 2-[[(1S,2R,4R,5S)-5-bromo-1-methyl-4-isopropyl-7-oxabicyclo[2.2.1]heptan-2-yl]oxymethyl]benzonitrile]
≥ 80%: inhibition at 1200 g/ha (Digitaria ciliaris [1]) | inhibition at 1200 g/ha (Monochoria vaginalis) | inhibition at 1200 g/ha [2] | inhibition at 1200 g/ha (Scirpus juncoides) | inhibition at 1200 g/ha (Echinochloa crus-galli [3]) | inhibition at 75 g/ha [4] | inhibition at 1200 g/ha (Digitaria ciliaris [6]) | inhibition at 1200 g/ha (Echinochloa crus-galli [7])

CC(C)[C@]12C[C@@H](OCc3ccc(Cl)cc3Cl)[C@](C)(C[C@@H]1Br)O2 [1-717, (1S,2R,4R,5S)-5-bromo-2-[(2,4-dichlorophenyl)methoxy]-1-methyl-4-isopropyl-7-oxabicyclo[2.2.1]heptane]
≥ 80%: inhibition at 1200 g/ha (Digitaria ciliaris [1]) | inhibition at 1200 g/ha (Monochoria vaginalis) | inhibition at 1200 g/ha [2] | inhibition at 1200 g/ha (Scirpus juncoides) | inhibition at 1200 g/ha (Echinochloa crus-galli [3]) | inhibition at 75 g/ha [4] | inhibition at 75 g/ha (Echinochloa crus-galli [5]) | inhibition at 1200 g/ha (Digitaria ciliaris [6]) | inhibition at 1200 g/ha (Echinochloa crus-galli [7])

COC1(OC)C[C@]2(C)O[C@@]1(C(C)C)C[C@H]2OCc1ccccc1F [1-935, (1R,4S,5R)-5-((2-fluorobenzyl)oxy)-1-isopropyl-2,2-dimethoxy-4-methyl-7-oxabicyclo[2.2.1]heptane]
≥ 80%: inhibition at 1200 g/ha (Digitaria ciliaris [1]) | inhibition at 1200 g/ha (Monochoria vaginalis) | inhibition at 1200 g/ha [2] | inhibition at 1200 g/ha (Scirpus juncoides) | inhibition at 1200 g/ha (Echinochloa crus-galli [3]) | inhibition at 75 g/ha [4] | inhibition at 1200 g/ha (Digitaria ciliaris [6]) | inhibition at 1200 g/ha (Echinochloa crus-galli [7])

CC(C)[C@]12C[C@@H](OCc3c(F)cccc3Br)[C@](C)(C[C@@H]1Br)O2 [1-1600, (1S,2R,4R,5S)-5-bromo-2-[(2-bromo-6-fluorophenyl)methoxy]-1-methyl-4-isopropyl-7-oxabicyclo[2.2.1]heptane]
≥ 80%: inhibition at 1200 g/ha (Digitaria ciliaris [1]) | inhibition at 1200 g/ha (Monochoria vaginalis) | inhibition at 1200 g/ha [2] | inhibition at 1200 g/ha (Scirpus juncoides) | inhibition at 1200 g/ha (Echinochloa crus-galli [3]) | inhibition at 75 g/ha [4] | inhibition at 75 g/ha (Echinochloa crus-galli [5]) | inhibition at 1200 g/ha (Digitaria ciliaris [6]) | inhibition at 1200 g/ha (Echinochloa crus-galli [7])

CC(C)[C@]12C[C@@H](OCc3cc(F)ccc3F)[C@](C)(CC1=O)O2 [2-18, (1R,4S,5R)-5-((2,5-difluorobenzyl)oxy)-1-isopropyl-4-methyl-7-oxabicyclo[2.2.1]heptan-2-one]
≥ 80%: inhibition at 1200 g/ha (Digitaria ciliaris [1]) | inhibition at 1200 g/ha (Monochoria vaginalis) | inhibition at 1200 g/ha [2] | inhibition at 1200 g/ha (Scirpus juncoides) | inhibition at 1200 g/ha (Echinochloa crus-galli [3]) | inhibition at 75 g/ha [4] | inhibition at 75 g/ha (Echinochloa crus-galli [5]) | inhibition at 1200 g/ha (Digitaria ciliaris [6]) | inhibition at 1200 g/ha (Echinochloa crus-galli [7])

CC(C)[C@]12C[C@@H](OCc3c(Cl)cccc3Cl)[C@](C)(CC1=O)O2 [2-26, (1R,4S,5R)-5-((2,6-dichlorobenzyl)oxy)-1-isopropyl-4-methyl-7-oxabicyclo[2.2.1]heptan-2-one]
≥ 80%: inhibition at 1200 g/ha (Digitaria ciliaris [1]) | inhibition at 1200 g/ha [2] | inhibition at 1200 g/ha (Echinochloa crus-galli [3]) | inhibition at 75 g/ha [4] | inhibition at 1200 g/ha (Digitaria ciliaris [6]) | inhibition at 1200 g/ha (Echinochloa crus-galli [7])

CC(C)[C@]12C[C@@H](OCc3ccc(F)cc3)[C@](C)(CC1=O)O2 [2-349, (1R,4S,5R)-5-((4-fluorobenzyl)oxy)-1-isopropyl-4-methyl-7-oxabicyclo[2.2.1]heptan-2-one]
≥ 80%: inhibition at 1200 g/ha (Digitaria ciliaris [1]) | inhibition at 1200 g/ha (Monochoria vaginalis) | inhibition at 1200 g/ha [2] | inhibition at 1200 g/ha (Echinochloa crus-galli [3]) | inhibition at 75 g/ha [4] | inhibition at 75 g/ha (Echinochloa crus-galli [5]) | inhibition at 1200 g/ha (Digitaria ciliaris [6]) | inhibition at 1200 g/ha (Echinochloa crus-galli [7])
